Columns and labels:
[1] = biological target: Protein farnesyltransferase (Bos taurus, UniProt P29702+P49355); experiment: Inhibition of the Farnesyltransferase catalyzed incorporation of [3H]FPP into recombinant Ha-Ras by 50% in bovine brain at a concentration of ca. 1 nM.; format: tissue-based
Rat1 [2] = experiment: 90% reduction in v-Ha-ras (Ras2B) transformed RAT1 cell colony size and number in soft agar assay; format: functional; settings: Rattus norvegicus
Rat1 [3] = experiment: 90% reduction in v-raf (Raf1a1) transformed RAT1 cell colony size and number in soft agar assay; format: functional; settings: Rattus norvegicus
[4] = biological target: Geranylgeranyl transferase type I (Bos taurus, UniProt P29702+Q5EAD5); experiment: Inhibition of Geranylgeranyl transferase type I, an enzyme that recognizes CaaX sequences containing leucine as the terminal residue.; format: protein-complex assay

Compound: N[C@@H](CS)CNc1cccc(Oc2ccccc2)c1
- IC50 [1]: 2.3 µM

Compound: N[C@@H](CS)C(=O)Nc1cccc(Oc2cccc(C(=O)O)c2)c1
- IC50 [1]: 6.9 µM

Compound: N[C@@H](CS)CNc1ccc(Oc2cccc(CO)c2)cc1
- IC90 (Rat1 [2]): ~30 µM
- IC90 (Rat1 [3]): 30 µM
- IC50 [1]: 0.335 µM

Compound: Cc1cccc(Oc2ccc(NC[C@@H](N)CS)cc2)c1
- IC90 (Rat1 [2]): 10 µM
- IC90 (Rat1 [3]): 10 µM
- IC50 [1]: 0.615 µM

Compound: COC(=O)c1ccc(Oc2ccc(NC(=O)[C@@H](N)CS)cc2)cc1
- IC50 [1]: > 100 µM

Compound: COC(=O)c1ccc(Oc2cccc(NC(=O)[C@@H](N)CS)c2)cc1
- IC50 [1]: > 100 µM

Compound: N[C@@H](CS)CNc1ccc(Oc2ccc(C(=O)O)cc2)cc1
- IC50 [1]: 3.15 µM

Compound: N[C@@H](CS)C(=O)Nc1ccc(Oc2ccc(C(=O)O)cc2)cc1
- IC50 [1]: 39 µM

Compound: COC(=O)c1cccc(Oc2cccc(NC(=O)[C@@H](N)CS)c2)c1
- IC50 [1]: 45 µM

Compound: N[C@@H](CS)CNc1ccc(Oc2ccccc2)cc1
- IC90 (Rat1 [2]): 10 µM
- IC90 (Rat1 [3]): 10 µM
- IC50 [4]: 5 µM
- IC50 [1]: 0.46 µM

Compound: Cc1cccc(Oc2cccc(NC[C@@H](N)CS)c2)c1
- IC50 [1]: 0.33 µM

Compound: COC(=O)c1cccc(Oc2ccc(NC(=O)[C@@H](N)CS)cc2)c1
- IC50 [1]: 45 µM

Compound: COC(=O)c1cccc(Oc2ccc(NC[C@@H](N)CS)cc2)c1
- IC90 (Rat1 [2]): 10 µM
- IC90 (Rat1 [3]): 10 µM
- IC50 [4]: 2.3 µM
- IC50 [1]: 0.65 µM

Compound: N[C@@H](CS)C(=O)Nc1cccc(Oc2ccc(C(=O)O)cc2)c1
- IC50 [1]: > 100 µM

Compound: N[C@@H](CS)CNc1ccc(Oc2cccc(C(=O)O)c2)cc1
- IC90 (Rat1 [2]): > 50 µM
- IC90 (Rat1 [3]): > 50 µM
- IC50 [1]: 0.403 µM

Compound: N[C@@H](CS)CNc1cccc(Oc2ccc(C(=O)O)cc2)c1
- IC50 [1]: 3.8 µM

Compound: N[C@@H](CS)C(=O)Nc1ccc(Oc2cccc(C(=O)O)c2)cc1
- IC50 [1]: 16 µM

Compound: N[C@@H](CS)CNc1cccc(Oc2cccc(C(=O)O)c2)c1
- IC90 (Rat1 [2]): > 50 µM
- IC90 (Rat1 [3]): > 50 µM
- IC50 [4]: 5.8 µM
- IC50 [1]: 0.25 µM

Reference: ChEMBL document CHEMBL1130358, “DIARYLETHER INHIBITORS OF FARNESYL-PROTEIN TRANSFERASE” (Bioorg Med Chem Lett, 1997)
